Experiments:
[1] = test system: mouse partial sciatic nerve ligation model; assay: Mouse partial sciatic nerve ligation model (Seltzer model), von Frey test (neuropathic pain); type: in vivo; parameters: von Frey Total Score of 1 Hour after Oral Administration (Mean ± S.E.), Test Compound-Administered Group: scale not given here; settings: for Score Improvement %: 1 hour after administration, relative to vehicle and sham surgery groups; for von Frey Total Score of 1 Hour after Oral Administration (Mean ± S.E.), Test Compound-Administered Group: n = 5-6, 7 days after ligation
Method: Mouse models of partial sciatic nerve ligation were prepared according to Seltzer's method (Malmberg et al., Pain, 1998, vol. 76, p. 215-222). Male ICR mice of 5 weeks old were anesthetized with Sodium pentobarbital (70 mg/kg, i.p.), and thereafter, the sciatic nerve at the femoral region of the right hindlimb of each mouse was exposed, and the sciatic nerve was triply ligated tightly with silk suture of 8-0 (NATSUME SEISAKUSHO) under microscope so that only half thickness of the nerve was trapped in the ligature, which mice were used as a ligation group. The mice whose sciatic nerves were exposed but not ligated were used as a sham surgery group.
Evaluation of neuropathic pain (hereinafter “von Frey test”) was carried out as follows. Mice were conditioned for at least 1 hour in an acryl cage for measurement (NATSUME SEISAKUSHO) placed on a wire net. Thereafter, using a filament (North Coast Medical, Inc. CA, USA) which exerted a pressure of 0.16 g, the mice were subjected to mechanical tactile stimulus by applying the filament to the plantar surface of both hindpaws 3 times, each for 3 seconds, with an interval of 3 seconds.
Seven days after the sciatic nerve ligation, test compounds were orally administered to the mice. Prior to the oral administration of the test compounds, the von Frey test was carried out to split the animals of the ligation group into vehicle groups and test compound-administered groups so that the sums of the total scores of the groups were equalized. The mice of the sham surgery groups, the vehicle groups and the test compound-administered groups were subjected to the von Frey test 1 hour, 2 hours and 3 hours after oral administration of a vehicle or a test compound, and the obtained scores were used as an indicator of analgesic effect. As a vehicle of test compound solution or suspension, DMSO:Tween80:distilled water (1:1:8), 27% HP-β-CD or 0.5% MC was used.
For evaluation of drug efficacy, data were statistically processed by unpaired multigroup t test (adjusted by Dunnett), taking the vehicle group of each measurement time as a control.

rat fibromyalgia model = assay: Effects on rat fibromyalgia model (acidic saline injection; allodynia by von Frey filaments); type: in vivo; settings: compared with the vehicle group, Day 7, 1-3 h after dosing, p<0.05, FIG. 1
Method: In the experiments, 5 to 6 male SD rats of 6 to 7 weeks old were used for one experimental group. One hundred microliters of acidic physiological saline with pH of 4.0 was injected twice (taking the day when administration of acidic physiological saline started as Day 1, the administration was carried out once on Day 1 and once on Day 6) to gastrocnemius muscle of right hindlimb of each anesthetized rat to prepare a rat fibromyalgia model (Sluka et al., J. Pharmacol. Exp. Ther., 2002, vol. 302, p. 1146; Nagakura et al., Pain, 2009, vol. 146, p. 26; Sluka et al., Pain, 2009, vol. 146, p. 3), which was considered to reflect clinical symptoms of fibromyalgia based on their pharmacological characteristics and thus widely used in basic studies of fibromyalgia. In the same manner, physiological saline was administered to the control group.
For measurement of allodynia observed in a rat fibromyalgia model, a 50% withdrawal threshold (g) was determined using von Frey filaments in accordance with the method described in Chaplan et al., J. Neurosci. Methods, 1994, vol. 53, p. 55. On Day 7, allodynia was measured before oral administration of the test compound as Pre, and 1-, 2- and 3-hour after oral administration of the test compound. Rats which developed allodynia by receiving intramuscular injection of acidic physiological saline were used as a rat fibromyalgia model to evaluate the analgesic effect of the test compound. The term “rats which developed allodynia” herein means the rats showing a 50% withdrawal threshold (g) (the mean value of right and left hind paws) of 6 g or less. Pregabalin was used as a positive control.
Compound 3, which is included in Compound (I), was suspended in 0.5% methylcellulose solution (hereinafter “0.5% MC”) to a concentration of 5 mg/mL or 10 mg/mL, and orally administered at an administration volume of 1 mL per 1 kg body weight. Pregabalin was suspended in 0.5% MC to a concentration of 10 mg/mL, and orally administered at an administration volume of 1 mL per 1 kg body weight. The vehicle group received oral administration of 0.5% MC. […]

fibromyalgia = settings: reported, Abeles et al., Am J. Med., 2008; cited from earlier work

## COc1ccc(-n2nc(C3(O)CCC(O)CC3)cc2-c2ccc(C)cc2)cc1 (single isomer, unassigned) [Compound 2, 1-(1-(4-methoxyphenyl)-5-(p-tolyl)-1H-pyrazol-3-yl)cyclohexan-trans-1,4-diol]
[1]; dose 0.3 mg/kg oral, 0.3 mg/kg
  Score Improvement %: 104%
  von Frey Total Score of 1 Hour after Oral Administration (Mean ± S.E.), Test Compound-Administered Group: 0.8 ± 0.5

## COc1ccc(-n2nc(C3(O)CCC(O)CC3)cc2-c2ccc(C)cc2)cc1 (single isomer, unassigned) [Compound 3, 1-(1-(4-methoxyphenyl)-5-(p-tolyl)-1H-pyrazol-3-yl)cyclohexan-cis-1,4-diol]
Rat fibromyalgia model; oral administration 5 mg/kg
  allodynia observed in the rat fibromyalgia model (50% withdrawal threshold): significantly improved allodynia
Rat fibromyalgia model; oral administration 10 mg/kg
  allodynia observed in the rat fibromyalgia model (50% withdrawal threshold): significantly improved allodynia
[1]; dose 0.3 mg/kg oral, 0.3 mg/kg
  Score Improvement %: 83%
  von Frey Total Score of 1 Hour after Oral Administration (Mean ± S.E.), Test Compound-Administered Group: 1.2 ± 0.8

## COc1ccc(-c2cc(C3(O)CCC(O)CC3)nn2-c2ccc(OC)cc2)cc1 (stereo not drawn) [Compound 8, 1-(1,5-bis(4-methoxyphenyl)-1H-pyrazol-3-yl)cyclohexan-cis-1,4-diol]
[1]; dose 10 mg/kg oral
  von Frey Total Score of 1 Hour after Oral Administration (Mean ± S.E.), Test Compound-Administered Group: 2.2 ± 0.5

## COc1ccc(-n2nc(C3(O)CCC(O)CC3)c(Cl)c2-c2ccc(C)cc2)cc1 (stereo not drawn) [Compound 9, 1-(4-chloro-1-(4-methoxyphenyl)-5-(p-tolyl)-1H-pyrazol-3-yl)cyclohexan-cis-1,4-diol]
[1]; dose 10 mg/kg oral
  von Frey Total Score of 1 Hour after Oral Administration (Mean ± S.E.), Test Compound-Administered Group: 1.7 ± 0.6

## COc1ccc(-n2nc(C3(O)CCC(O)(C(F)(F)F)CC3)cc2-c2ccc(C)cc2)cc1 (stereo not drawn) [Compound 10, 1-(1-(4-methoxyphenyl)-5-(p-tolyl)-1H-pyrazol-3-yl)-4-(trifluoromethyl)cyclohexan-cis-1,4-diol]
[1]; dose 1 mg/kg oral
  von Frey Total Score of 1 Hour after Oral Administration (Mean ± S.E.), Test Compound-Administered Group: 1.5 ± 0.5

## COc1ccc(-n2nc(C3(O)CCC(C(=O)O)CC3)cc2-c2ccc(C)cc2)cc1 (stereo not drawn) [Compound 16, 4-hydroxy-4-(1-(4-methoxyphenyl)-5-(p-tolyl)-1H-pyrazol-3-yl)-cis-cyclohexanecarboxylic acid]
[1]; dose 1 mg/kg oral
  von Frey Total Score of 1 Hour after Oral Administration (Mean ± S.E.), Test Compound-Administered Group: 2.3 ± 0.5

## COc1ccc(-c2nc(C3(O)CCC(O)CC3)oc2-c2ccc(OC)cc2)cc1 (stereo not drawn) [Compound 43, 4-(4,5-bis(4-methoxyphenyl)oxazol-2-yl)cyclohexan-cis-1,4-diol]
[1]; dose 10 mg/kg oral
  von Frey Total Score of 1 Hour after Oral Administration (Mean ± S.E.), Test Compound-Administered Group: 0.8 ± 0.7

## COc1ccc(-n2nc(C3(O)CCC(O)CC3)cc2-c2ccc(C)cc2)cc1F (stereo not shown) [Compound 54]
[1]; dose 10 mg/kg oral
  von Frey Total Score of 1 Hour after Oral Administration (Mean ± S.E.), Test Compound-Administered Group: 1.2 ± 0.6

## COc1ccc(-n2nc(C3(O)CCC(O)CC3)cc2-c2ccc(C)c(F)c2)cc1 (stereo not shown) [Compound 55]
[1]; dose 3 mg/kg oral
  von Frey Total Score of 1 Hour after Oral Administration (Mean ± S.E.), Test Compound-Administered Group: 0.7 ± 0.5

## CC(C)Cc1ccc(C(C)C(=O)O)cc1 (stereo not shown) [ibuprofen]
fibromyalgia
  analgesic effect in treating fibromyalgia: any statistically significant analgesic effect is not observed

## COc1ccc2cc([C@H](C)C(=O)O)ccc2c1 [naproxen]
fibromyalgia
  analgesic effect in treating fibromyalgia: any statistically significant analgesic effect is not observed

## CC(C)C[C@H](CN)CC(=O)O [pregabalin, reference compound]
Rat fibromyalgia model; oral administration 10 mg/kg
  allodynia observed in the rat fibromyalgia model (50% withdrawal threshold): significantly improved allodynia

— patent publication US8957094B2, “Therapeutic agent or prophylactic agent for fibromyalgia” (Toray Industries, Inc., priority 2010, dated 2015)
